In patent publication US11272709B2, “Amidine substituted benzoyl derivatives useful as herbicides” (Syngenta Participations AG, priority 2018, dated 2022):

Legend:
Type in all cases: in vivo
Conditions in all cases: evaluated after 13 days
[1] = test system: Echinochloa crus-galli (ECHCG); test: Pre-emergence herbicidal glasshouse test, Echinochloa crus-galli (ECHCG)
Experimental: (§1) Seeds of a variety of test species are sown in standard soil in pots (Lolium perenne (LOLPE), Amaranthus retoflexus (AMARE), Abutilon theophrasti (ABUTH), Setaria faberi (SETFA), Echinochloa crus-galli (ECHCG), Ipomoea hederacea (IPOHE)). After cultivation for one day (pre-emergence) or after 8 days cultivation (post-emergence) under controlled conditions in a glasshouse (at 24/16° C., day/night; 14 hours light; 65% humidity), the plants are sprayed with an aqueous spray solution derived from the formulation of the technical active ingredient in acetone/water (50:50) solution containing 0.5% Tween 20 (polyoxyethelyene sorbitan monolaurate, CAS RN 9005-64-5). Compounds are applied at 500 g/h unless otherwise indicated. The test plants are then grown in a glasshouse under controlled conditions in a glasshouse (at 24/16° C., day/night; 14 hours light; 65% humidity) and watered twice daily. After 13 days for pre and post-emergence, the test is evaluated for the percentage damage caused to the plant. The biological activities are shown in the following table on a five point scale (5=80-100%; 4=60-79%; 3=40-59%; 2=20-39%; 1=0-19%).

[2] = test system: Setaria faberi (SETFA); test: Post-emergence herbicidal glasshouse test, Setaria faberi (SETFA)
Experimental: as §1

[3] = test system: Setaria faberi (SETFA); test: Pre-emergence herbicidal glasshouse test, Setaria faberi (SETFA)
Experimental: as §1

[4] = test system: Echinochloa crus-galli (ECHCG); test: Post-emergence herbicidal glasshouse test, Echinochloa crus-galli (ECHCG)
Experimental: as §1

[5] = test system: Abutilon theophrasti (ABUTH); test: Pre-emergence herbicidal glasshouse test, Abutilon theophrasti (ABUTH)
Experimental: as §1

[6] = test system: Amaranthus retoflexus (AMARE); test: Pre-emergence herbicidal glasshouse test, Amaranthus retoflexus (AMARE)
Experimental: as §1

[7] = test system: Abutilon theophrasti (ABUTH); test: Post-emergence herbicidal glasshouse test, Abutilon theophrasti (ABUTH)
Experimental: as §1

[8] = test system: Amaranthus retoflexus (AMARE); test: Post-emergence herbicidal glasshouse test, Amaranthus retoflexus (AMARE)
Experimental: as §1

[9] = test system: Ipomoea hederacea (IPOHE); test: Post-emergence herbicidal glasshouse test, Ipomoea hederacea (IPOHE)
Experimental: as §1

[10] = test system: Ipomoea hederacea (IPOHE); test: Pre-emergence herbicidal glasshouse test, Ipomoea hederacea (IPOHE)
Experimental: as §1

| Compound | PRE Application ECHCG, percentage damage (five point scale) ([1]; 500 g/h) | POST Application SETFA, percentage damage (five point scale) ([2]; 500 g/h) | PRE Application SETFA, percentage damage (five point scale) ([3]; 500 g/h) | POST Application ECHCG, percentage damage (five point scale) ([4]; 500 g/h) | PRE Application ABUTH, percentage damage (five point scale) ([5]; 500 g/h) | PRE Application AMARE, percentage damage (five point scale) ([6]; 500 g/h) | POST Application ABUTH, percentage damage (five point scale) ([7]; 500 g/h) | POST Application AMARE, percentage damage (five point scale) ([8]; 500 g/h) | POST Application IPOHE, percentage damage (five point scale) ([9]; 500 g/h) | PRE Application IPOHE, percentage damage (five point scale) ([10]; 500 g/h) | also measured |
| --- | --- | --- | --- | --- | --- | --- | --- | --- | --- | --- | --- |
| Cc1c(C(=O)Nc2nnnn2C)ccc(C(F)(F)F)c1N=CN(C)C [Compound 1.017] | 5 (5=80-100%) | 5 (5=80-100%) | 5 (5=80-100%) | 5 (5=80-100%) | 5 (5=80-100%) | 5 (5=80-100%) | 5 (5=80-100%) | 5 (5=80-100%) | 5 (5=80-100%) | 5 (5=80-100%) |  |
| Cc1c(C(=O)Nc2nnnn2C)ccc(S(C)(=O)=O)c1/N=C/N(C)C [Compound 1.025, 3-[(E)-dimethylaminomethyleneamino]-2-methyl-4-methylsulfonyl-N-(1-methyltetrazol-5-yl)benzamide] | 5 (5=80-100%) | 5 (5=80-100%) | 5 (5=80-100%) | 5 (5=80-100%) | 5 (5=80-100%) | 5 (5=80-100%) | 5 (5=80-100%) | 5 (5=80-100%) | 5 (5=80-100%) | 5 (5=80-100%) |  |
| CCN(C)C=Nc1c(S(C)(=O)=O)ccc(C(=O)Nc2nnnn2C)c1C [Compound 1.027] | 5 (5=80-100%) | 5 (5=80-100%) | 5 (5=80-100%) | 5 (5=80-100%) | 5 (5=80-100%) | 5 (5=80-100%) | 5 (5=80-100%) | 5 (5=80-100%) | 5 (5=80-100%) | 5 (5=80-100%) |  |
| CCN(C=Nc1c(S(C)(=O)=O)ccc(C(=O)Nc2nnnn2C)c1C)CC [Compound 1.031] | 5 (5=80-100%) | 5 (5=80-100%) | 5 (5=80-100%) | 5 (5=80-100%) | 5 (5=80-100%) | 5 (5=80-100%) | 5 (5=80-100%) | 5 (5=80-100%) | 5 (5=80-100%) | 4 (4=60-79%) |  |
| CN(C)C=Nc1c(Cl)ccc(C(=O)Nc2nnnn2C)c1Cl [Compound 1.041] | 5 (5=80-100%) | 5 (5=80-100%) |  | 5 (5=80-100%) | 5 (5=80-100%) | 5 (5=80-100%) | 5 (5=80-100%) | 5 (5=80-100%) | 5 (5=80-100%) | 5 (5=80-100%) |  |
| CCN(C=Nc1c(C(F)(F)F)ccc(C(=O)Nc2nnnn2C)c1Cl)CC [Compound 1.055] | 5 (5=80-100%) | 5 (5=80-100%) | 5 (5=80-100%) | 5 (5=80-100%) | 5 (5=80-100%) | 5 (5=80-100%) | 5 (5=80-100%) | 5 (5=80-100%) | 5 (5=80-100%) | 5 (5=80-100%) |  |
| CN(C)C=Nc1c(S(C)(=O)=O)ccc(C(=O)Nc2nnnn2C)c1Cl [Compound 1.057] |  |  |  |  |  |  |  |  |  |  | PRE Application ECHCG, percentage damage (five point scale) ([1]; applied at 125 g/ha): 5 (5=80-100%); POST Application SETFA, percentage damage (five point scale) ([2]; applied at 125 g/ha): 5 (5=80-100%); PRE Application SETFA, percentage damage (five point scale) ([3]; applied at 125 g/ha): 5 (5=80-100%); POST Application ECHCG, percentage damage (five point scale) ([4]; applied at 125 g/ha): 5 (5=80-100%); PRE Application ABUTH, percentage damage (five point scale) ([5]; applied at 125 g/ha): 5 (5=80-100%); PRE Application AMARE, percentage damage (five point scale) ([6]; applied at 125 g/ha): 5 (5=80-100%); POST Application ABUTH, percentage damage (five point scale) ([7]; applied at 125 g/ha): 5 (5=80-100%); POST Application AMARE, percentage damage (five point scale) ([8]; applied at 125 g/ha): 5 (5=80-100%); POST Application IPOHE, percentage damage (five point scale) ([9]; applied at 125 g/ha): 5 (5=80-100%); PRE Application IPOHE, percentage damage (five point scale) ([10]; applied at 125 g/ha): 5 (5=80-100%) |
| CC(=NOCc1c(S(C)(=O)=O)ccc(C(=O)Nc2nnnn2C)c1Cl)N(C)C [Compound 1.129] | 5 (5=80-100%) | 5 (5=80-100%) | 5 (5=80-100%) | 5 (5=80-100%) | 5 (5=80-100%) | 5 (5=80-100%) | 5 (5=80-100%) | 5 (5=80-100%) | 5 (5=80-100%) | 5 (5=80-100%) |  |
| CN(/C=N/c1c(C(F)(F)F)ccc(C(=O)Nc2nnnn2C)c1Cl)CC(F)(F)F [Compound 1.130, 2-chloro-N-(1-methyltetrazol-5-yl)-3-[(E)-[methyl(2,2,2-trifluoroethyl)amino]methyleneamino]-4-(trifluoromethyl)benzamide] | 5 (5=80-100%) | 5 (5=80-100%) | 5 (5=80-100%) | 5 (5=80-100%) | 5 (5=80-100%) | 5 (5=80-100%) | 5 (5=80-100%) | 5 (5=80-100%) | 5 (5=80-100%) | 5 (5=80-100%) |  |
| CN(C=Nc1c(C(F)(F)F)ccc(C(=O)Nc2nnnn2C)c1Cl)c1ccccc1 [Compound 1.131] | 5 (5=80-100%) | 5 (5=80-100%) | 5 (5=80-100%) | 5 (5=80-100%) | 5 (5=80-100%) | 5 (5=80-100%) | 5 (5=80-100%) | 5 (5=80-100%) | 5 (5=80-100%) | 5 (5=80-100%) |  |
| Cn1nnnc1NC(=O)c1ccc(C(F)(F)F)c(/N=C/N2CCCC2)c1Cl [Compound 1.132, 2-chloro-N-(1-methyltetrazol-5-yl)-3-[(E)-pyrrolidin-1-ylmethyleneamino]-4-(trifluoromethyl)benzamide] | 5 (5=80-100%) | 5 (5=80-100%) | 5 (5=80-100%) | 5 (5=80-100%) | 5 (5=80-100%) | 5 (5=80-100%) | 5 (5=80-100%) | 5 (5=80-100%) | 5 (5=80-100%) | 5 (5=80-100%) |  |
| Cn1nnnc1NC(=O)c1ccc(C(F)(F)F)c(N=CN2CCOCC2)c1Cl [Compound 1.135] |  |  |  |  |  |  |  |  |  |  | PRE Application ECHCG, percentage damage (five point scale) ([1]; applied at 250 g/ha): 5 (5=80-100%); POST Application SETFA, percentage damage (five point scale) ([2]; applied at 250 g/ha): 5 (5=80-100%); PRE Application SETFA, percentage damage (five point scale) ([3]; applied at 250 g/ha): 5 (5=80-100%); POST Application ECHCG, percentage damage (five point scale) ([4]; applied at 250 g/ha): 3 (3=40-59%); PRE Application ABUTH, percentage damage (five point scale) ([5]; applied at 250 g/ha): 5 (5=80-100%); PRE Application AMARE, percentage damage (five point scale) ([6]; applied at 250 g/ha): 5 (5=80-100%); POST Application ABUTH, percentage damage (five point scale) ([7]; applied at 250 g/ha): 5 (5=80-100%); POST Application AMARE, percentage damage (five point scale) ([8]; applied at 250 g/ha): 5 (5=80-100%); POST Application IPOHE, percentage damage (five point scale) ([9]; applied at 250 g/ha): 5 (5=80-100%); PRE Application IPOHE, percentage damage (five point scale) ([10]; applied at 250 g/ha): 5 (5=80-100%) |
